Like-named read-outs stand apart in the source and are kept apart here.
Molecular target: truncated form of human NaV 1.8 with full channel activity (Homo sapiens, UniProt Q9Y5Y9)
Assay: E-VIPR Assay Method A for detecting and measuring Nav inhibition (HEK cells, membrane potential FRET dyes, electrical stimulation)
Type: cell-based
Settings: HEK cells expressing human NaV 1.8, HS (human serum) in compound loading buffer, 11 point dose response, top dose 3 μM
How it was run: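 HEK cells expressing truncated human NaV1.8, loaded with CC2-DMPE/DiSBAC6(3) FRET dyes, incubated 30 min at room temp with compound (0.625% DMSO), then electrically stimulated (1.25 A biphasic, 10 Hz, 10 s). Inhibition from 460/580 nm ratio Rf/Ri, normalised to positive and DMSO controls.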

[1] = Table 20A, read-out: Nav 1.8 MedChem Optical Assay EVIPR Assay Method A HS IC50
[2] = Table 20, read-out: Nav 1.8 MedChem Optical Assay EVIPR Assay Method A HS IC50

truncated form of human NaV 1.8 with full channel activity, sequence (Q9Y5Y9 126-1722 limits assumed): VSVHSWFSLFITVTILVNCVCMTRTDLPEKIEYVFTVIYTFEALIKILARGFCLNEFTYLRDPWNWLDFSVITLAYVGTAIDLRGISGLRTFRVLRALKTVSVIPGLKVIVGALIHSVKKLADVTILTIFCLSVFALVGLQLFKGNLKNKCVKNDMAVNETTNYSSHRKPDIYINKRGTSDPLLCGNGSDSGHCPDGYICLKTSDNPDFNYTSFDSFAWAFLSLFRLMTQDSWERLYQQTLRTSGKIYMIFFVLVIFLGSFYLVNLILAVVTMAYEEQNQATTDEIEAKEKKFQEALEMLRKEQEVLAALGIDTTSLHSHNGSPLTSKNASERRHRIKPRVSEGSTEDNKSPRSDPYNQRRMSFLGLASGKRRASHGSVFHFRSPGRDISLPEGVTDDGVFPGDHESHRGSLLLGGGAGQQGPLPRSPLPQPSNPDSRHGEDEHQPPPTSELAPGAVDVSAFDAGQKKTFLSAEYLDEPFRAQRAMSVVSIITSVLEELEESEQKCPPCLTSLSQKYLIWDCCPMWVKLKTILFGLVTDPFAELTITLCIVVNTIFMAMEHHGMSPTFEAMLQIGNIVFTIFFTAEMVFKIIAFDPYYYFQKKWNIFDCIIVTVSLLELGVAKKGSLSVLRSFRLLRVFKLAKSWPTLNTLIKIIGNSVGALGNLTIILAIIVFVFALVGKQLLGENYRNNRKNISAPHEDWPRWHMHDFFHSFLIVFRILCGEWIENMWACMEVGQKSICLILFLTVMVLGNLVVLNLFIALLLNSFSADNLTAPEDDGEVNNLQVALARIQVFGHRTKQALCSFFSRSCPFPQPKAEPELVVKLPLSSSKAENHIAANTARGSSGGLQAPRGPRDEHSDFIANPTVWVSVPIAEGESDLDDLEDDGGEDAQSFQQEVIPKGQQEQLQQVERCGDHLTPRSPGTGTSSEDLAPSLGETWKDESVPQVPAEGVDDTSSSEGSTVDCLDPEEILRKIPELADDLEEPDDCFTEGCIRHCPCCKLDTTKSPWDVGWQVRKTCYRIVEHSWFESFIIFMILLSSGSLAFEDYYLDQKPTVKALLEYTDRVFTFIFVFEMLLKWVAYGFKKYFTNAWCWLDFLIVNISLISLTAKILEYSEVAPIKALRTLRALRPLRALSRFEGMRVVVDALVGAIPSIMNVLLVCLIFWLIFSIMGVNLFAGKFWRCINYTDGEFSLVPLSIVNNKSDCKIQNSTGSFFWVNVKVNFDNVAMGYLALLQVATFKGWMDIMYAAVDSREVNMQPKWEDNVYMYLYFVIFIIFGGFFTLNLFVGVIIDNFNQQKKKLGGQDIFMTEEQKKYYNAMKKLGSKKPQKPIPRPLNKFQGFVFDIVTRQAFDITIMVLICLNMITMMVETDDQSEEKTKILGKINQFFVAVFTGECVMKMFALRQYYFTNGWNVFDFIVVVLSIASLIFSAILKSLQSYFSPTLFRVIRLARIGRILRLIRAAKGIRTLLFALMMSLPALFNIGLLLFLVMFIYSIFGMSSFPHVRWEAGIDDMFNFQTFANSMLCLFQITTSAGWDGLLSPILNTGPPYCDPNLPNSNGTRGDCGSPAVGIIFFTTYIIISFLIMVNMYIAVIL

Compound | IC50 [1] | IC50 [2]
[2H]C([2H])([2H])Oc1cc(OC(F)(F)F)ccc1Oc1ccc(C(F)(F)F)c(F)c1C(=O)Nc1ccc(C(=O)NC)nc1 [Compound 209, 5-[[2-fluoro-6-[2-(trideuteriomethoxy)-4-(trifluoromethoxy)phenoxy]-3-(trifluoromethyl)benzoyl]amino]-N-methyl-pyridine-2-carboxamide] | 50 nM | 
COc1cc(OC(F)(F)F)ccc1Oc1cc(C2CC2)c(C(F)(F)F)cc1C(=O)Nc1ccnc(C(N)=O)c1 [Compound 125, 4-[[4-Cyclopropyl-2-[2-methoxy-4-(trifluoromethoxy)phenoxy]-5-(trifluoromethyl)benzoyl]amino]pyridine-2-carboxamide] | 34 nM | 
NC(=O)c1cc(NC(=O)c2c(Oc3ccc(OC(F)(F)F)cc3OC(F)F)ccc(C(F)(F)F)c2F)ccn1 [Compound 13, 4-[[6-[2-(difluoromethoxy)-4-(trifluoromethoxy)phenoxy]-2-fluoro-3-(trifluoromethyl)benzoyl]amino]pyridine-2-carboxamide] |  | 4 nM
Cc1cnc(C(N)=O)cc1NC(=O)c1c(Oc2ccc(OC(F)(F)F)cc2)ccc(C(F)(F)F)c1F [Compound 242, 4-[[2-fluoro-6-[4-(trifluoromethoxy)phenoxy]-3-(trifluoromethyl)benzoyl]amino]-5-methyl-pyridine-2-carboxamide] | 44 nM | 
COc1cc(OC(F)(F)F)ccc1Oc1cc(C(F)(F)F)cnc1C(=O)Nc1cccc(C(N)=O)c1 [Compound 31, N-(3-Carbamoylphenyl)-3-[2-methoxy-4-(trifluoromethoxy)phenoxy]-5-(trifluoromethyl)pyridine-2-carboxamide] | 155 nM | 
NC(=O)c1cc(NC(=O)c2c(Oc3ccc(OC(F)(F)F)cc3)ccc(C(F)(F)F)c2F)ccc1O [Compound 85, N-(3-carbamoyl-4-hydroxy-phenyl)-2-fluoro-6-[4-(trifluoromethoxy)phenoxy]-3-(trifluoromethyl)benzamide] | 320 nM | 
[2H]C([2H])([2H])Oc1c(Oc2ccc(C(F)(F)F)c(F)c2C(=O)Nc2ccnc(C(=O)NC)c2)ccc(OC(F)(F)F)c1F [Compound 228, 4-[[2-Fluoro-6-[3-fluoro-2-(trideuteriomethoxy)-4-(trifluoromethoxy)phenoxy]-3-(trifluoromethyl)benzoyl]amino]-N-methyl-pyridine-2-carboxamide] | 7 nM | 
Cc1cnc(C(N)=O)cc1NC(=O)c1c(Oc2ccc(OC(F)(F)F)cc2)ccc(Cl)c1F [Compound 244, 4-[[3-chloro-2-fluoro-6-[4-(trifluoromethoxy)phenoxy]benzoyl]amino]-5-methyl-pyridine-2-carboxamide] | 73 nM | 
NC(=O)c1cc(NC(=O)c2c(Oc3ccc(F)cc3)cccc2C(F)(F)F)ccc1F [Compound 37, N-(3-Carbamoyl-4-fluoro-phenyl)-2-(4-fluorophenoxy)-6-(trifluoromethyl)benzamide] | 890 nM | 
COc1cc(OC(F)(F)F)ccc1Oc1cc(C(F)(F)F)ncc1C(=O)Nc1ccc(C)c(C(N)=O)c1 [Compound 238, N-(3-carbamoyl-4-methyl-phenyl)-4-[2-methoxy-4-(trifluoromethoxy)phenoxy]-6-(trifluoromethyl)pyridine-3-carboxamide] | 400 nM | 
NC(=O)c1cc(NC(=O)c2c(Oc3ccc(OC(F)(F)F)cc3)ccc(Cl)c2F)ccc1F [Compound 73, N-(3-Carbamoyl-4-fluoro-phenyl)-3-chloro-2-fluoro-6-[4-(trifluoromethoxy)phenoxy]benzamide] | 23 nM | 
COc1cc(OC(F)(F)F)ccc1Oc1cc(C2CC2)cc(F)c1C(=O)Nc1ccnc(C(N)=O)c1 [Compound 22, 4-[[4-cyclopropyl-2-fluoro-6-[2-methoxy-4-(trifluoromethoxy)phenoxy]benzoyl]amino]pyridine-2-carboxamide] |  | 11 nM
[2H]C([2H])([2H])Oc1cc(OC(F)(F)F)ccc1Oc1cc(C(F)(F)F)cc(F)c1C(=O)Nc1ccnc(C(N)=O)c1 [Compound 17, 4-[[2-fluoro-6-[2-(trideuteriomethoxy)-4-(trifluoromethoxy)phenoxy]-4-(trifluoromethyl)benzoyl]amino]pyridine-2-carboxamide] |  | 8 nM
